Tests used:
[1] = LNP size and size distribution by dynamic light scattering (WISC HA modFlu mRNA LNPs); assay type: physicochemical; details: DLS; for Size (nm): LNP of the ionizable lipid:cholesterol:DSPC:PEG-Lipid about 46.3:42.7:9.4:1.6 with WISC HA modFlu mRNA; for PDI: LNP with WISC HA modFlu mRNA
Method: (§1) Lipid nanoparticles were prepared and tested according to the general procedures described in U.S. Pat. No. 9,737,619 (PCT Pub. No. WO2015/199952) and U.S. Pat. No. 10,166,298 (PCT Pub. No. WO 2017/075531) and PCT Pub. No. WO2020/146805. The novel ionizable lipids of the invention, cholesterol, DSPC and PEG-Lipid were solubilized in Ethanol at a molar ratio of about 46.3:42.7:9.4:1.6. Lipid nanoparticles (LNP) were prepared at a total lipid to mRNA ratio of about 23:1. In short, the mRNA (WISC HA modFlu) was diluted in buffer. Syringe pumps were used to mix the lipid solution with the mRNA solution. The ethanol was removed, and external buffer replaced with another buffer (e.g., Tris) by dialysis. Finally, the lipid nanoparticle size and size distribution were determined by dynamic light scattering using an Unchained Labs Stunner (Unchained Labs, USA). RNA encapsulation efficiency was determined using the Quant-iT RiboGreen RNA assay (Life Technologies, USA). Briefly, LNPs were incubated with RiboGreen dye (200-fold dilution per manufactures' instruction) in the presence and absence of 1% Triton-X 100 and fluorescence intensities (Excitation/Emission: 485/528 […]) were measured for unencapsulated RNA and total RNA after release from LNPs by Triton-X 100.

[2] = RNA encapsulation efficiency, Quant-iT RiboGreen RNA assay (WISC HA modFlu mRNA LNPs); assay type: physicochemical; details: LNP with WISC HA modFlu mRNA
Method: as §1

Hek293T cells = assay: In vitro expression of encoded gene of interest after LNP dosing, high content imaging (WISC HA modFlu mRNA); assay type: cell-based; details: LNP with WISC HA modFlu mRNA, overnight incubation
Method: as §1
(§2) Plated Hek293T or Hela cells were dosed with lipid nanoparticles in a total volume of 40 μl cell culture media and incubated overnight at 37° C. and 5% CO2. After fixation with 4% paraformaldehyde in PBS cells were washed in PBS containing 0.3% Triton-X100 and 3% BSA (w/v), followed by nuclear staining with Hoechst and antibody staining for the encoded gene of interest. Nuclear count and identification of cells stained positive for gene of interest was done on an Opera Phenix high content imager (PerkinElmer, USA).

Hela cells [3] = assay: as above; assay type: cell-based; details: LNP with WISC HA modFlu mRNA, overnight incubation
Method: as §1, §2

[4] = LNP size and polydispersity index by Malvern Zetasizer dynamic light scattering (CA HA modFlu mRNA LNPs); assay type: physicochemical; details: DLS; for Size (nm): LNP of the ionizable lipid:cholesterol:DSPC:ALC-0159 about 46.3:42.7:9.4:1.6, N:P about 6:1, CA HA modFlu mRNA; for PDI: LNP with CA HA modFlu mRNA
Procedure, shortened: (§3)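 LNPs of ionizable lipid:cholesterol:DSPC:ALC-0159 (molar ratio about 46.3:42.7:9.4:1.6) formed by syringe-pump mixing of ethanolic lipids with mRNA at N:P about 6:1, then dialysed into buffer (e.g., Tris) and filtered. Size and PDI measured by DLS; total RNA and encapsulation efficiency by RiboGreen.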

[5] = Encapsulation efficiency, RiboGreen RNA quantitation assay (CA HA modFlu mRNA LNPs); assay type: physicochemical; details: LNP with CA HA modFlu mRNA
Procedure, shortened: as §3

HEK293F cells = assay: In vitro expression of novel ionizable lipid nanoparticles, high content imaging (CA HA modFlu mRNA); assay type: cell-based; details: LNP with CA HA modFlu mRNA
Procedure, shortened: (§4)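 Lipid nanoparticles of ionizable lipid, cholesterol, DSPC and ALC-0159 (about 46.3:42.7:9.4:1.6 molar), N:P about 6:1, carrying mRNA, dosed onto cells overnight at 37° C., 5% CO2. Cells fixed and stained with Hoechst plus antibody to encoded protein; nuclei and antigen-positive cells counted by high-content imaging.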

Hela cells [6] = assay: as above; assay type: cell-based; details: LNP with CA HA modFlu mRNA
Procedure, shortened: as §4

Which results are given for `CCCCCCCC(CCCCCCC)C(=O)O[C@@H]1CC2(CCN(CCCCO)CC2)C[C@H]1OC(=O)C(CCCCCCC)CCCCCCC` (racemic) [Example 51, rac-(2R,3R)-8-(4-Hydroxybutyl)-8-azaspiro[4.5]decane-2,3-diyl bis(2-heptylnonanoate)]?
Size (nm) [1]: 72 nm; PDI [1]: 0.03; EE % [2]: 96%; EC50 Hek293T (ng/well) (Hek293T cells): 5.3 ng/well; EC50 Hela (ng/well) (Hela cells [3]): 10.7 ng/well; Size (nm) [4]: 58 nm; PDI [4]: 0.030; EE % [5]: 99%; EC50 Hek293F (ng/well) (HEK293F cells): 0.27 ng/well; EC50 Hela (ng/well) (Hela cells [6]): 0.64 ng/well

For `CCCCCCCC(CCCCCCC)C(=O)OCC1(COC(=O)C(CCCCCCC)CCCCCCC)CCC2(CCN(CCCCO)CC2)CC1` [Example 1, (3-(4-hydroxybutyl)-3-azaspiro[5.5]undecane-9,9-diyl)bis(methylene) bis(2-heptylnonanoate)], which “Size (nm)” value [1] is on record?
Its value is 76 nm.

What about the PDI [1] of the same compound?
The PDI was 0.04.

What about the EE % [2] of the same compound?
The EE % was 99%.

What about the “EC50 Hek293T (ng/well)” value (Hek293T cells) of the same compound?
Its value is 13.9 ng/well.

What about the “EC50 Hela (ng/well)” value (Hela cells [3]) of the same compound?
The value was 18.3 ng/well.

What about the “Size (nm)” value [4] of the same compound?
The value was 78 nm.

And the PDI [4]?
Its PDI is 0.050.

What about the EE % [5] of the same compound?
Its EE % is 100%.

And the “EC50 Hek293F (ng/well)” value (HEK293F cells)?
Its value is 1.7 ng/well.

What about the “EC50 Hela (ng/well)” value (Hela cells [6]) of the same compound?
Its value is 1.2 ng/well.

Which results are given for `CCCCCCCC(CCCCCCC)C(=O)OCC(COC(=O)C(CCCCCCC)CCCCCCC)C1CCC2(CC1)CCN(CCCCO)CC2` [Example 2, 2-(3-(4-hydroxybutyl)-3-azaspiro[5.5]undecan-9-yl)propane-1,3-diyl bis(2-heptylnonanoate)]?
Size (nm) [1]: 93 nm; PDI [1]: 0.06; EE % [2]: 99%; EC50 Hek293T (ng/well) (Hek293T cells): 14.5 ng/well; EC50 Hela (ng/well) (Hela cells [3]): 28.1 ng/well; Size (nm) [4]: 92 nm; PDI [4]: 0.040; EE % [5]: 100%; EC50 Hek293F (ng/well) (HEK293F cells): 2.5 ng/well; EC50 Hela (ng/well) (Hela cells [6]): 1.6 ng/well

Which “Size (nm)” value [1] does the source give for `CCCCCCCC(CCCCCCC)C(=O)OCC(COC(=O)C(CCCCCCC)CCCCCCC)N1CCC2(CCN(CCCCO)CC2)CC1` [Example 3, 2-(9-(4-Hydroxybutyl)-3,9-diazaspiro[5.5]undecan-3-yl)propane-1,3-diyl bis(2-heptylnonanoate)] here?
Its value is 152 nm.

And the PDI [1]?
Its PDI is 0.07.

What about the EE % [2] of the same compound?
The EE % was 99%.

What about the “EC50 Hek293T (ng/well)” value (Hek293T cells) of the same compound?
Its value is 11.9 ng/well.

What about the “EC50 Hela (ng/well)” value (Hela cells [3]) of the same compound?
Its value is 18.4 ng/well.

And the “Size (nm)” value [4]?
Its value is 90 nm.

And the PDI [4]?
Its PDI is 0.040.

And the EE % [5]?
Its EE % is 100%.

What about the “EC50 Hek293F (ng/well)” value (HEK293F cells) of the same compound?
Its value is 2.8 ng/well.

What about the “EC50 Hela (ng/well)” value (Hela cells [6]) of the same compound?
The value was 1.7 ng/well.

For `CCCCCC/C=C\CCCC(=O)OCC(COC(=O)C(CCCCCC)CCCCCCCC)N1CCC2(CCN(CCCCO)CC2)CC1` (centres unmarked) [Example 43, 3-((2-hexyldecanoyl)oxy)-2-(9-(4-hydroxybutyl)-3,9-diazaspiro[5.5]undecan-3-yl)propyl (Z)-dodec-5-enoate], which “Size (nm)” value [4] is on record?
The value was 89 nm.

And the PDI [4]?
Its PDI is 0.111.

What about the EE % [5] of the same compound?
Its EE % is 99%.

And the “EC50 Hek293F (ng/well)” value (HEK293F cells)?
The value was 33.3 ng/well.

What about the “EC50 Hela (ng/well)” value (Hela cells [6]) of the same compound?
The value was 14.2 ng/well.

What does the source list for `CCCCCCCCC(CCCCCC)C(=O)OCC(COC(=O)C(CCCCCCCC)CC1CCC1)N1CCC2(CCN(CCCCO)CC2)CC1` (centres unmarked) [Example 44, 3-((2-(cyclobutylmethyl)decanoyl)oxy)-2-(9-(4-hydroxybutyl)-3,9-diazaspiro[5.5]undecan-3-yl)propyl 2-hexyldecanoate]?
Size (nm) [4]: 119 nm; PDI [4]: 0.080; EE % [5]: 99%; EC50 Hek293F (ng/well) (HEK293F cells): 0.28 ng/well; EC50 Hela (ng/well) (Hela cells [6]): 0.30 ng/well

With `CCCCCCCCCC(CCCC)C(=O)OCC(COC(=O)C(CCCCCC)CCCCCCCC)N1CCC2(CCN(CCCCO)CC2)CC1` (centres unmarked) [Example 45, 3-((2-hexyldecanoyl)oxy)-2-(9-(4-hydroxybutyl)-3,9-diazaspiro[5.5]undecan-3-yl)propyl 2-butylundecanoate] as the compound, how does the “Size (nm)” value [4] read?
The value was 117 nm.

And the PDI [4]?
The PDI was 0.060.

What about the EE % [5] of the same compound?
The EE % was 99%.

And the “EC50 Hek293F (ng/well)” value (HEK293F cells)?
Its value is 1.1 ng/well.

And the “EC50 Hela (ng/well)” value (Hela cells [6])?
The value was 1.1 ng/well.

What does the source list for `CCCCCCCCCCCCCCCC(=O)OCC(COC(=O)CCC(CCCC)C(CCCC)CCCC)N1CCC2(CCN(CCCCO)CC2)CC1` (centres unmarked) [Example 46, 3-((4,5-dibutylnonanoyl)oxy)-2-(9-(4-hydroxybutyl)-3,9-diazaspiro[5.5]undecan-3-yl)propyl palmitate]?
Size (nm) [4]: 92 nm; PDI [4]: 0.090; EE % [5]: 99%; EC50 Hek293F (ng/well) (HEK293F cells): 24.6 ng/well; EC50 Hela (ng/well) (Hela cells [6]): 1.7 ng/well

Which results are given for `CCCCCCCC(CCCCCCC)C(=O)OCCC(CCOC(=O)C(CCCCCCC)CCCCCCC)N1CCC2(CCN(CCCCO)CC2)CC1` [Example 47, 3-(9-(4-hydroxybutyl)-3,9-diazaspiro[5.5]undecan-3-yl)pentane-1,5-diyl bis(2-heptylnonanoate)]?
Size (nm) [4]: 147 nm; PDI [4]: 0.080; EE % [5]: 99%; EC50 Hek293F (ng/well) (HEK293F cells): 5.9 ng/well; EC50 Hela (ng/well) (Hela cells [6]): 4.6 ng/well

Which “Size (nm)” value [4] does the source give for `CCCCCCCC(CCCCCCC)C(=O)OCC(COC(=O)C(CCCCCCC)CCCCCCC)N1CCC2(CCN(CCCCCO)C2)CC1` [Example 48, 2-(2-(5-hydroxypentyl)-2,8-diazaspiro[4.5]decan-8-yl)propane-1,3-diyl bis(2-heptylnonanoate)] here?
The value was 127 nm.

What about the PDI [4] of the same compound?
The PDI was 0.093.

And the EE % [5]?
Its EE % is 100%.

And the “EC50 Hek293F (ng/well)” value (HEK293F cells)?
Its value is 0.76 ng/well.

What about the “EC50 Hela (ng/well)” value (Hela cells [6]) of the same compound?
The value was 1.0 ng/well.

Which “Size (nm)” value [4] does the source give for `CCCCCCCCC(CCCCCC)C(=O)OCC(COC(=O)C(CCCCCC)CCCCCCCC)N1CC2(CCN(CCCCCO)CC2)C1` (centres unmarked) [Example 49, 2-(7-(5-hydroxypentyl)-2,7-diazaspiro [3.5]nonan-2-yl)propane-1,3-diyl bis(2-hexyldecanoate)] here?
The value was 160 nm.

What about the PDI [4] of the same compound?
Its PDI is 0.110.

What about the EE % [5] of the same compound?
Its EE % is 99%.

What about the “EC50 Hek293F (ng/well)” value (HEK293F cells) of the same compound?
Its value is 0.41 ng/well.

And the “EC50 Hela (ng/well)” value (Hela cells [6])?
The value was 1.4 ng/well.

For `CCCCCCCCC(CCCCCC)C(=O)OCC(COC(=O)C(CCCCCC)CCCCCCCC)N1CCC2(CC1)CN(CCCCO)C2` (centres unmarked) [Example 50, 2-(2-(4-hydroxybutyl)-2,7-diazaspiro[3.5]nonan-7-yl)propane-1,3-diyl bis(2-hexyldecanoate)], which “Size (nm)” value [4] is on record?
Its value is 120 nm.

What about the PDI [4] of the same compound?
The PDI was 0.046.

What about the EE % [5] of the same compound?
Its EE % is 99%.

And the “EC50 Hek293F (ng/well)” value (HEK293F cells)?
The value was 0.56 ng/well.

What about the “EC50 Hela (ng/well)” value (Hela cells [6]) of the same compound?
The value was 0.74 ng/well.
